From publication PMC9386018, “A lymphatic-absorbed multi-targeted kinase inhibitor for myelofibrosis therapy” (Nature Communications, 2022)
“And” between values parts separate entries of the source, which are not always exact repeats. Equal values may be shown once.

Legend:
[1] = in vivo; conditions: female, CD-1, mouse
[2] = female, CD-1, mouse, in vivo, po, 0.167 h
[3] = Compound quantitation in blood and mesenteric lymph nodes; format: in vivo, mouse; conditions: mice; for uptake in the mesenteric lymph nodes compared to LP5-37: 4 h after oral 100 mg kg^−1
Procedure: Whole blood and mesenteric lymph nodes were collected either 30 min or 4 h following compound administration and stored at −20 °C until future processing and analysis by the University of Michigan Pharmacokinetics Core as above, or as outlined below, to determine compound concentrations in each tissue. […] Data was generated from n ≥ 4 individual animals per compound per study group or dose.
Briefly, acetonitrile was added to a final concentration of 60–80% to bone marrow, whole blood, plasma, lymphatic fluid, lymphatic proteo-lipid sub-fractions, or mesenteric lymph node samples for compound extraction. Extraction was performed by shaking and/or bead rupture using a Precellys Evolution tissue homogenizer (Bertin Technologies SAS). […] Optimization of MS and MS/MS parameters for MRM quantitation and maximum sensitivity of individual compounds was performed using SCIEX Analyst software (AB Sciex). […] All LC-MS/MS acquisitions were performed with an independent standard curve for each group of analytes and for each individual run. All solvents utilized were of Optima LC-MS Grade (Fisher Scientific). Data was generated from n ≥ 2 individual animals per compound per study condition or dose.

[4] = system: SET-2 cells; assay: SET-2 proliferation assay (CellTiter-Fluor); format: cell-based, human; conditions: 72 h, replicates (Fig. 2d)
Procedure: Viable cells were counted by CellTiter-Fluor Assay (Promega) according to manufacturer’s protocol, and all fluorescence values were corrected by a no-cell control. […] Caspase activity was measured by Caspase-Glo 3/7 assay (Promega) according to the manufacturer’s protocol, and all luminescence values were corrected by a no-cell control. Dose response proliferation and Caspase activation data was normalized to vehicle treated control cells and analyzed by non-linear regression for determination of IC50 values. Data was generated from n = 3 independent experiments performed in replicate.

[5] = Pharmacokinetic analysis of plasma after intravenous and oral dosing
[6] = system: MAPK signaling; conditions: cited from earlier work

`COc1ccc(-c2ccc3c(N4CCOC[C@@H]4C)nc(N4CCOC[C@@H]4C)nc3n2)cc1CO` [AZD8055] gave a concentration at 0.167 h ([1]; iv) of 3300 ng/mL, a concentration at 0.5 h ([1]; iv) of 2510 ng/mL and a concentration at 1 h ([1]; iv) of 1710 ng/mL. The concentration at 2 h ([1]; iv) was 744 ng/mL, the concentration at 24 h ([1]; iv) was 1 ng/mL and the concentration at 0.167 h ([1]; po) was 626 ng/mL. It also gave a concentration at 0.5 h ([1]; po) of 3700 ng/mL, a concentration at 1 h ([1]; po) of 3440 ng/mL and a concentration at 2 h ([1]; po) of 4880 ng/mL. It also gave a concentration at 7 h ([1]; po) of 3930 ng/mL, a concentration at 16 h ([1]; po) of 4430 ng/mL and a Concentration [2] of 704 ng/mL.

For `O=C(NOCCOCCOCCOCCONC(=O)c1ccc(F)c(F)c1Nc1ccc(I)cc1F)c1ccc(F)c(F)c1Nc1ccc(I)cc1F` [LP5-37], the “mesenteric lymph node levels versus blood” value ([3]; 4 h after oral 400 mg kg^−1) was “significantly higher than in blood”.

In the case of `COCCOCCOCCOCCONC(=O)c1ccc(F)c(F)c1Nc1ccc(I)cc1F` [LP5-38], the “uptake in the mesenteric lymph nodes compared to LP5-37” value [3] is reported as “reduced uptake”.

For `O=C(NOCCO)c1ccc(F)c(F)c1Nc1ccc(I)cc1F` [PD0316684, reference compound], the “Growth (%)” value ([4]; 0.0390625 µM) was 95.6027% and 82.3855% and 49.4653% and 99.6209% and 66.699% and 96.6844%, the “Growth (%)” value ([4]; 0.078125 µM) was 101.495% and 98.0639% and 103.106% and 103.604% and 92.0053% and 98.1242% and the “Growth (%)” value ([4]; 0.15625 µM) was 100.075% and 88.7042% and 52.4529% and 86.403% and 62.7397% and 78.9368%. For the same molecule, the “Growth (%)” value ([4]; 0.3125 µM) was 97.1172% and 98.6318% and 60.2388% and 84.8639% and 78.1339% and 80.2658%, the “Growth (%)” value ([4]; 0.625 µM) was 88.0297% and 91.2009% and 71.3744% and 84.6376% and 79.2414% and 81.5948% and the “Growth (%)” value ([4]; 5 µM) was 71.6887% and 74.5167% and 60.9631% and 39.5066% and 70.9074% and 51.4432%. For the same molecule, the “Growth (%)” value ([4]; 10 µM) was 49.6443% and 48.6858% and 23.1653% and 17.5522% and 22.5652% and 22.2053%, the “Growth (%)” value ([4]; 20 µM) was 15.211% and 15.14% and -3.18% and -3.361% and -4.513% and -3.5163% and the concentration at 0.167 h ([5]; female, CD-1, mouse, plasma, iv, 15 mg kg^−1, Concentration (ng/mL), mice, single i.v. LP-182 15 mg kg^−1, 0.167 h, analyte = label, individual animals) was 771 ng/mL. The concentration at 1 h ([5]; female, CD-1, mouse, plasma, iv, 15 mg kg^−1, Concentration (ng/mL), mice, single i.v. LP-182 15 mg kg^−1, 1 h, analyte = label, individual animals) was 95.3 ng/mL, the concentration at 2 h ([5]; female, CD-1, mouse, plasma, iv, 15 mg kg^−1, Concentration (ng/mL), mice, single i.v. LP-182 15 mg kg^−1, 2 h, analyte = label, individual animals) was 58.1 ng/mL and the concentration at 4 h ([5]; female, CD-1, mouse, plasma, iv, 15 mg kg^−1, Concentration (ng/mL), mice, single i.v. LP-182 15 mg kg^−1, 4 h, analyte = label, individual animals) was 18.6 ng/mL. For the same molecule, the concentration at 7 h ([5]; female, CD-1, mouse, plasma, iv, 15 mg kg^−1, Concentration (ng/mL), mice, single i.v. LP-182 15 mg kg^−1, 7 h, analyte = label, individual animals) was 5.74 ng/mL, the concentration at 16 h ([5]; female, CD-1, mouse, plasma, iv, 15 mg kg^−1, Concentration (ng/mL), mice, single i.v. LP-182 15 mg kg^−1, 16 h, analyte = label, individual animals) was 3.59 ng/mL and the concentration at 0.167 h ([5]; female, CD-1, mouse, plasma, iv, 15 mg kg^−1, Concentration, Figure 6c, Time 0.167 h, individual replicates) was 89.6 ng/mL. It also gave a concentration at 1 h ([5]; female, CD-1, mouse, plasma, iv, 15 mg kg^−1, Concentration, Figure 6c, Time 1 h, individual replicates) of 39.4 ng/mL, a concentration at 2 h ([5]; female, CD-1, mouse, plasma, iv, 15 mg kg^−1, Concentration, Figure 6c, Time 2 h, individual replicates) of 18.7 ng/mL and a concentration at 0.167 h ([5]; female, CD-1, mouse, plasma, iv, 15 mg kg^−1, Concentration, Figure 6d, Time 0.167 h, individual replicates) of 234 ng/mL. The concentration at 0.5 h ([5]; female, CD-1, mouse, plasma, iv, 15 mg kg^−1, Concentration, Figure 6d, Time 0.5 h, individual replicates) was 241 ng/mL, the concentration at 1 h ([5]; female, CD-1, mouse, plasma, iv, 15 mg kg^−1, Concentration, Figure 6d, Time 1 h, individual replicates) was 112 ng/mL and the concentration at 2 h ([5]; female, CD-1, mouse, plasma, iv, 15 mg kg^−1, Concentration, Figure 6d, Time 2 h, individual replicates) was 62.8 ng/mL. For the same molecule, the concentration at 4 h ([5]; female, CD-1, mouse, plasma, iv, 15 mg kg^−1, Concentration, Figure 6d, Time 4 h, individual replicates) was 39.4 ng/mL, the concentration at 7 h ([5]; female, CD-1, mouse, plasma, iv, 15 mg kg^−1, Concentration, Figure 6d, Time 7 h, individual replicates) was 35.3 ng/mL and the concentration at 24 h ([5]; female, CD-1, mouse, plasma, iv, 15 mg kg^−1, Concentration, Figure 6d, Time 24 h, individual replicates) was 3.46 ng/mL. For the same molecule, the concentration at 0.5 h ([5]; female, CD-1, mouse, plasma, po, 200 mg kg^−1, Concentration, Figure 6c, Time 0.5 h, individual replicates) was 644 ng/mL, the concentration at 7 h ([5]; female, CD-1, mouse, plasma, po, 200 mg kg^−1, Concentration, Figure 6c, Time 7 h, individual replicates) was 260 ng/mL and the concentration at 0.5 h ([5]; female, CD-1, mouse, plasma, po, 200 mg kg^−1, Concentration, Figure 6d, Time 0.5 h, individual replicates) was 254 ng/mL. For the same molecule, the concentration at 1 h ([5]; female, CD-1, mouse, plasma, po, 200 mg kg^−1, Concentration, Figure 6d, Time 1 h, individual replicates) was 156 ng/mL, the concentration at 7 h ([5]; female, CD-1, mouse, plasma, po, 200 mg kg^−1, Concentration, Figure 6d, Time 7 h, individual replicates) was 201 ng/mL and the concentration at […] ([5]; female, CD-1, mouse, plasma, po, 200 mg kg^−1, Concentration, Figure 6d, Time […], individual replicates) was 131 ng/mL. The concentration at 0.167 h ([5]; female, CD-1, mouse, plasma, po, 400 mg kg^−1, Concentration (ng/mL), mice, single p.o. LP-182 400 mg kg^−1, 0.167 h, analyte = label, individual animals) was 175 ng/mL, the concentration at 0.5 h ([5]; female, CD-1, mouse, plasma, po, 400 mg kg^−1, Concentration (ng/mL), mice, single p.o. LP-182 400 mg kg^−1, 0.5 h, analyte = label, individual animals) was 399 ng/mL and the concentration at 1 h ([5]; female, CD-1, mouse, plasma, po, 400 mg kg^−1, Concentration (ng/mL), mice, single p.o. LP-182 400 mg kg^−1, 1 h, analyte = label, individual animals) was 500 ng/mL. The concentration at 4 h ([5]; female, CD-1, mouse, plasma, po, 400 mg kg^−1, Concentration (ng/mL), mice, single p.o. LP-182 400 mg kg^−1, 4 h, analyte = label, individual animals) was 76.7 ng/mL, the concentration at 16 h ([5]; female, CD-1, mouse, plasma, po, 400 mg kg^−1, Concentration (ng/mL), mice, single p.o. LP-182 400 mg kg^−1, 16 h, analyte = label, individual animals) was 68.3 ng/mL and the concentration at 24 h ([5]; female, CD-1, mouse, plasma, po, 400 mg kg^−1, Concentration (ng/mL), mice, single p.o. LP-182 400 mg kg^−1, 24 h, analyte = label, individual animals) was 78.6 ng/mL. For the same molecule, the “plasma level maintained over 24 h” value ([5]; mice, after oral LP-182 400 mg kg^−1, analyte = label) was roughly 100 ng/mL and the “uptake in the mesenteric lymph nodes compared to LP5-37” value [3] was “reduced uptake”.

For `O=C(NOC[C@H](O)CO)c1ccc(F)c(F)c1Nc1ccc(I)cc1F` [PD0325901], the “plasma concentration with significant pharmacologic activity against MAPK signaling” value [6] is listed as greater than 50 ng mL^−1.
